The test system of the test is erythrocytes. The test is described as follows: percentage of sickling of erythrocytes over time during deoxygenation by the PCA/PCD system. The class given is cell-based. An excerpt: FIG. 5 is a graph illustrating a percentage of sickled erythrocytes over time for one sample that is exposed to a drug and one that is not.
Referring again to FIG. 3, the method may continue with the step 60 of deoxygenating the supporting medium in the aliquot of sample A and, in certain embodiments, the supporting medium in the aliquot of sample B to induce at least one of a predetermined amount of hypoxia and a predetermined rate of oxygen consumption in each of the supporting mediums. Deoxygenation of the supporting mediums in the aliquots of samples A and B may occur at the same or different times. Deoxygenation may be performed through enzymatic catalysis using enzymatic oxygen scavengers/scrubbers such as glucose oxidase or pyranose oxidase. In a preferred embodiment, deoxygenation is performed through enzymatic catalysis using a reaction substrate comprising protocatechuic acid (PCA) and a reaction enzyme comprising […] (PCD). PCD catalyzes the conversion of PCA and oxygen in the supporting medium in a 1:1 stoichiometry into β-carboxy-cis, cis-muconic acid (CMA). The use of PCA/PCD has a number of advantages relative to other enzymatic catalysis methods and other methods of deoxygenation. […] The use of PCA/PCD can achieve greater levels of hypoxia in the samples relative to some other methods. The use of PCA/PCD can also achieve specific levels of hypoxia as opposed to proceeding to complete hypoxia as in other methods thereby allowing simulation of more specific conditions (e.g., for a particular organ or particular level of hypoxia). Most importantly, the use of PCA/PCD allows accurate control of the rate of oxygen consumption in both the supporting medium and, as a result, the rate of deoxygenation of Hb in embodiments where the cellular unit comprises erythrocytes or extracellular Hb. Conventional methods of deoxygenation assume equilibrium or quasi-equilibrium conditions in which, for example, the rate of Hb deoxygenation occurs […] than the rate of oxygen consumption in the supporting medium. […]

Where [1] appears, read: FIG. 5, curve 76 vs curve 78, PCA/PCD deoxygenation at the same rate of oxygen consumption.

Consider `CC(C)n1nccc1-c1ncccc1COc1cccc(O)c1C=O` [voxelotor], for which the “percentage of sickling of erythrocytes over time” value (FIG. 5, curve 76 (voxelotor) vs curve 78, same erythrocyte-containing sample deoxygenated by PCA/PCD at the same rate of oxygen consumption) is on record as “reduction in sickling”. Also, under setting [1], the delay in sickling entry is recorded as “longer delay in sickling” and the erythrocyte sickling rate entry is listed as “slower erythrocyte sickling rate”.

The values above are taken from patent publication US11933780B2, “System and method for assessing an effect on cellular units in an organism” (Functional Fluidics Inc., priority 2022, dated 2024).
